Assay results published in ChEMBL document CHEMBL4014340, “Identification of a Potent, Selective, and Efficacious Phosphatidylinositol 3-Kinase δ (PI3Kδ) Inhibitor for the Treatment of Immunological Disorders” (J Med Chem, 2017).

What was measured:
[1] = Metabolic stability in mouse liver microsomes assessed as parent compound remaining at 0.5 uM preincubated for 6 mins followed by NADPH addition measured after 10 mins by LC-MS/MS analysis; assay type: ADME, microsome; details: read-out: Stability
[2] = Metabolic stability in rat liver microsomes assessed as parent compound remaining at 0.5 uM preincubated for 6 mins followed by NADPH addition measured after 10 mins by LC-MS/MS analysis; assay type: ADME, microsome; details: read-out: Stability
[3] = Metabolic stability in human liver microsomes assessed as parent compound remaining at 0.5 uM preincubated for 6 mins followed by NADPH addition measured after 10 mins by LC-MS/MS analysis; assay type: ADME, microsome; details: read-out: Stability
[4] = Half life in mouse liver microsomes aat 0.5 uM preincubated for 6 mins followed by NADPH addition measured after 10 mins by LC-MS/MS analysis; assay type: ADME, microsome
[5] = AUC (0 to 24 hrs) in Balb/c mouse at 30 mg/kg, po; assay type: ADME, organism-based; parameters: dose 30 mg/kg, time < 24 hr, route oral; details: in vivo
[6] = AUC (0 to 24 hrs) in Balb/c mouse at 100 mg/kg, po; assay type: ADME, organism-based; parameters: dose 100 mg/kg, time < 24 hr, route oral; details: in vivo
[7] = Half life in human liver microsomes aat 0.5 uM preincubated for 6 mins followed by NADPH addition measured after 10 mins by LC-MS/MS analysis; assay type: ADME, microsome
[8] = Half life in rat liver microsomes aat 0.5 uM preincubated for 6 mins followed by NADPH addition measured after 10 mins by LC-MS/MS analysis; assay type: ADME, microsome
[9] = Cmax in Balb/c mouse at 10 mg/kg, po; assay type: ADME, organism-based; parameters: dose 10 mg/kg, route oral; details: in vivo
[10] = AUC (0 to 24 hrs) in Balb/c mouse at 10 mg/kg, po; assay type: ADME, organism-based; parameters: time < 24 hr, dose 10 mg/kg, route oral; details: in vivo

remaining at 10 min, 0.5 µM [1] | remaining at 10 min, 0.5 µM [2] | remaining at 10 min, 0.5 µM [3] | other results | SMILES
23% | 43% | 90% | – | CC(=O)N1C[C@@H](C)N(c2cc(-c3cc(C(F)(F)F)c4c(N)ncnn34)ccc2C#N)C(=O)C1(C)C
84% | 100% | 100% | – | CC(=O)N1CCN(c2cc(-c3cc(Cl)c4c(N)ncnn34)ccc2S(C)(=O)=O)C(=O)C1(C)C
17% | 57% | 100% | half-life at 0.5 µM [4]: 4 min; AUC(0-t) at 24 h [5]: 2.9 µM·h; AUC(0-t) at 24 h [6]: 17 µM·h; half-life at 0.5 µM [7]: > 120 min; half-life at 0.5 µM [8]: 16 min | CC(=O)N1CCN(c2cccc(-c3cc(Cl)c4c(N)ncnn34)c2)C(=O)C1(C)C
– | – | – | Cmax [9]: 470 nM; AUC(0-t) at 24 h [10]: 1.1 µM·h | CC(=O)N1CCN(c2cccc(-c3cc(-c4cnn(C5CC5)c4)c4c(N)ncnn34)c2)C(=O)C1(C)C
1% | 19% | 84% | – | CC(=O)N1CCN(c2cccc(-c3cc(Cl)c4c(N)ncnn34)c2C)C(=O)C1(C)C
99% | 77% | 70% | – | CC(=O)N1CCN(c2cc(-c3cc(C(F)(F)F)c4c(N)ncnn34)ccc2C(F)(F)F)C(=O)C1(C)C
22% | 59% | 82% | – | CC(=O)N1C[C@@H](C)N(c2cc(-c3cc(Cl)c4c(N)ncnn34)ccc2C#N)C(=O)C1(C)C
45% | 100% | 92% | – | CC(=O)N1CCN(c2cc(C)cc(-c3cc(Cl)c4c(N)ncnn34)c2)C(=O)C1(C)C
67% | 52% | 85% | – | CC(=O)N1CCN(c2cc(-c3cc(Cl)c4c(N)ncnn34)ccc2Cl)C(=O)C1(C)C
100% | 100% | 95% | – | COc1ccc(-c2cc(C(F)(F)F)c3c(N)ncnn23)cc1N1CCN(C(C)=O)C(C)(C)C1=O
100% | 100% | 100% | – | CC(=O)N1CCN(c2cc(-c3cc(C(F)(F)F)c4c(N)ncnn34)ccc2C(C)O)C(=O)C1(C)C (racemic)
100% | 100% | 100% | – | CC(=O)N1CCN(c2cc(-c3cc(Cl)c4c(N)ncnn34)ccc2C(C)O)C(=O)C1(C)C (racemic)
